# Patent US20240151711A1, “ADJUVANT FOR VACCINE DEVELOPMENT” (priority 2021, published 2024)
# Assays:
# tumor = details: intra-tumoral administration; cited from earlier work
# [1] = tested on: BMDCs derived from wild-type mice or Sting knockout mice; test: Identification of key adjuvant component in mRNA vaccine (EDOPC replaced with DOTAP); type: cell-based, mouse; details: Vehicle or MVP prepared with EDOPC or DOTAP; FIG. 22
# From the text: In order to determine the role of the charged lipid (i.e., EDOPC), positively charged 1,2-dioleoyl-3-trimethylammonium-propane (DOTAP) was used to replace EDOPC to prepare vehicle and mRNA vaccine. The resulting vehicle (Vehicle with DOTAP) and mRNA vaccine (MVP with DOTAP) were applied to compare with the parental vehicle (Vehicle with EDOPC) and mRNA vaccine (MVP with EDOPC) on stimulation of cytokine expression after BMDC treatment.
# BMDCs = test: Stimulation of cytokine production by mRNA vaccine in BMDCs (ELISA); type: cell-based, mouse; details: 24 hours; FIG. 20
# Procedure: GM-CSF/IL4-induced BMDCs were seeded into 24-well plates at a seeding density of 5×10^5 cells/well, and treated with PBS control, the TLR7 agonist imiquimod, mRNA-free vehicle control, mRNA core control, or mRNA vaccine (MVP) for 24 hours. Cell growth media were collected and IFN-b and TNF-α levels were measured with ELISA assay (FIG. 20). To determine pathways that play important roles on stimulation of cytokine production, BMDCs were induced from bone marrow cells collected from wild-type mice, Sting knockout mice, and Tlr7 knockout mice. Cells were treated with PBS control, mRNA-free vehicle control, mRNA core control, or mRNA vaccine (MVP) for 24 hours, and cell growth media were collected 24 hours later for measurement of cytokine levels.
smiles,measurement,setting,value
"Cc1ccc2c(=O)c3cccc(CC(=O)O)c3oc2c1C [DMXAA, 5,6-dimethylxanthenone-4-acetic acid]",antitumor immunity,tumor,strong antitumor immunity
"CCCCCCCC/C=C\CCCCCCCC(=O)OC[C@@H](COP(=O)(OCC)OCC[N+](C)(C)C)OC(=O)CCCCCCC/C=C\CCCCCCCC (stereo partly shown) [EDOPC, 1,2-dioleoyl-sn-glycero-3-ethylphosphocholine]",IFN-β level in growth media,[1],essential for STING-dependent stimulation
CC(C)Cn1cnc2c(N)nc3ccccc3c21 [imiquimod],IFN-β level in growth media,BMDCs,same as potent in stimulating IFN-β expression
same,TNF-α level in growth media,BMDCs,same as potent in stimulating TNF-α expression
